The values that follow come from article PMC9609496, “Synthesis, In Vitro Anti-Microbial Analysis and Molecular Docking Study of Aliphatic Hydrazide-Based Benzene Sulphonamide Derivatives as Potent Inhibitors of α-Glucosidase and Urease” (Molecules, 2022).

The term IC50 denotes the concentration that gives 50% inhibition. Broadly, the melting point is the temperature of the solid-liquid transition.

The target of series [1] is urease (Canavalia ensiformis, UniProt P07374). Nature of the series: biochemical. The format is biochemical. As for the experimental part:
Figure S6. High resolution Proton NMR Spectrum of 3-chloro-N'- undecanoylbenzenesulfonohydrazide (4.13).
4.16. Urease Assay Protocol
The reaction mixtures, which included […] of enzyme solution and […] of buffers containing 100 mM urea, were incubated in 96-well plates at 30 °C for 15 min with […] of the test compounds (0.5 mM concentration). The urea concentrations were adjusted from 2 -24 mM for the kinetics evaluation. By quantifying ammonia production with Weatherburn's indophenol technique, urease activity was determined.. To each well, 45 μL of the phenol reagent (1% w/v phenol and 0.005% w/v sodium nitroprusside) and 70 μL of the alkali reagent (0.5% w/v NaOH and 0.1% active chloride NaOCl) were added. Using a microplate reader, the rising absorbance at 630 nm was observed after 50 minutes (Molecular Device, USA). In a final volume of […], each reaction was carried out three times. Using the software SoftMaxPro, the results (change in absorbance per minute) were processed (molecular Device, USA). The experiments were run at pH 6.8 throughout. The formula 100-(ODtest well/ODcontrol) 100 was […]
used to calculate the percentage of inhibition. Thiourea was used as the standard inhibitor for […]
4.17. α-Glucosidase Inhibitory Assay Protocol […]
phosphate buffer (pH=6.8), were incubated at 37°C for 15 min in a 96-well plate. 20 µl of p-nitrophenyl—D-glucopyranoside solution was further added as a substrate and again incubated for 20 min at 37 °C. Sodium carbonate (50 µl of 0.1M) was added to terminate the reaction. P-nitrophenol was liberated, during the reaction which was measured at 405n m u sing an ELISA […]
conditions by omitting test samples. All the experiments were carried out in triplicates. The percentage inhibition was calculated by the formula.
% Inhibition = [(Ac – As) /Ac] × 100 Ac-absorbance for control, As-absorbance for standard.
4.18. Molecular Docking Assay
In this study the synthesized compounds were analyzed against α-amylase and α-glucosidase enzyme. […]

Series [2] has as its system Alternaria alternate. Nature of the series: Anti-fungal activity. The format is cell-based. As to conditions: against Alternaria alternate, standard drug Terinafine.
[3] abbreviates: read-out: Anti-Urease IC50 (µM ± SEM).

Like-named read-outs stand apart in the source and are kept apart here.

Sequence of urease (P07374 whole entry, looked up): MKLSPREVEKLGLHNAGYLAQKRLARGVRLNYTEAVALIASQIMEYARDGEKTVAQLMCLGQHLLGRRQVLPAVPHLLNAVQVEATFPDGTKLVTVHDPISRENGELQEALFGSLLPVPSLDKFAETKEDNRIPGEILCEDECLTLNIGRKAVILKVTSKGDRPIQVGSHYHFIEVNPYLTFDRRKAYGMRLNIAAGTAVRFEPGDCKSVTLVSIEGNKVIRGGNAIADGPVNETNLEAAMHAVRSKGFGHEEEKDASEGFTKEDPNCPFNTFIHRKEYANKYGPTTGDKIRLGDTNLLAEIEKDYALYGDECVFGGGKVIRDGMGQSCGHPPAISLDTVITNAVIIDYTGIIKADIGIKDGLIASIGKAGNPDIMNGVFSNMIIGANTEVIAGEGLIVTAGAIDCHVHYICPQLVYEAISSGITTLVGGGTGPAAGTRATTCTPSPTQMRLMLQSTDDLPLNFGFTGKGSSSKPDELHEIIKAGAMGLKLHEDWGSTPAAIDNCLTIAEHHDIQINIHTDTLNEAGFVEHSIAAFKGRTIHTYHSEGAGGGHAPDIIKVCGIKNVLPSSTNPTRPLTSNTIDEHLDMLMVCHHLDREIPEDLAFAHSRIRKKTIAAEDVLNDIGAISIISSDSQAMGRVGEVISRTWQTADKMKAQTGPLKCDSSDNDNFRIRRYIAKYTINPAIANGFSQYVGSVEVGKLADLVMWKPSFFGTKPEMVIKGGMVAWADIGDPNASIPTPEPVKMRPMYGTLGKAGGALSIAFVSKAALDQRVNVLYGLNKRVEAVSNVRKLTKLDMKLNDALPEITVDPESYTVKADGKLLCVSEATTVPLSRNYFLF

Take `CCCCCCCCCCC(=O)NNS(=O)(=O)c1cccc(Cl)c1` [Analog 13, 3-chloro-N'-undecanoylbenzenesulfonohydrazide]: the melting point lay within 168 to 169 °C. The half-inhibitory concentration (IC50) in series [1] (setting [3]) worked out at 18.4 ± 0.3 µM. As for `NC(N)=S` [thiourea, reference compound], the IC50 in series [1] (setting [3]) is 7.8 µM. The molecule `CCCCC(=O)NNS(=O)(=O)c1ccc(F)cc1[N+](=O)[O-]` [Analog 5] returned a half-maximal inhibitory concentration (IC50) in series [1] of 2.1 ± 0.1 µM. For the same molecule, the anti-fungal activity entry in series [2] is recorded as “exhibited anti-fungal profiles”.
